# Test results from patent publication US10005733B2, “N-(4-hydroxy-4-methyl-cyclohexyl)-4-phenyl-benzenesulfonamide and N-(4-hydroxy-4-methyl-cyclohexyl)-4-(2-pyridyl)-benzenesulfonamide compounds and their therapeutic use” (PIMCO 2664 LIMITED, priority 2014, dated 2018).
# What was measured:
# [1] = system: human primary osteoclasts; experiment: Human Primary Osteoclastogenesis (TRAP-positive multinucleated cells from CD14+ monocytes); assay type: cell-based; details: 1 μM; compound added on Day 4 of monocyte differentiation
# Protocol: In vitro potency of test compounds was determined by incubating them with human primary monocytes and assessing effects on the formation of mature osteoclasts.
# The activity of the compounds in reducing the formation of human primary osteoclasts (osteoclastogenesis) was tested using monocytes derived from human whole blood. Monocytes, which are positive for the cell surface marker CD14, are part of the innate immune system found in the circulation. Peripheral blood monocytes differentiate to form several cell types, including osteoclasts. Human primary osteoclasts were […] macrophage colony-stimulating factor (M-CSF) and RANKL+10% foetal calf serum for approximately 6 days, with the exact duration depending on the individual donor of the cells.
# When monocytes are cultured under the conditions described above, they form large, multinucleated cells (osteoclasts), which stain positively for tartrate-resistant acid phosphatase (TRAP). TRAP staining was performed between Days 5-6 of culture depending on the individual donor. Osteoclasts are identified as cells which stain positive for TRAP and contain more than 3 nuclei. Compounds which reduce the number of TRAP-positive cells reduce the formation of osteoclasts. The bisphosphonate compound, alendronate, which is used in the treatment of osteoporosis, is used as a positive control for reducing osteoclastogenesis in this assay.
# Effects on osteoclast formation were assessed by staining for TRAP and counting cells containing more than three nuclei in each well under a microscope. This allows the absolute determination of cell number in each treated well.
# PBMCs (peripheral blood mononuclear cells) were collected from healthy donors and isolated by centrifugation on a layer of Ficoll Paque (GE Healthcare, UK). Monocytes were then sorted from the PBMCs using an autoMACS Pro Separator (MiltenyiBiotec), which sorts cells depending on the markers present on their cell surface. The resulting CD14+ monocytes were resuspended in αMEM supplemented with 10% FCS, 25 ng/mL M-CSF and 100 ng/ml RANKL and added to a 48-well plate, which was then incubated for up to 6 days at 37° C./5% CO2. […] The medium was replenished every 2 days.
# At the end of the culture period, the medium was removed from the cells and the cells were fixed at room temperature and then washed with phosphate-buffered saline. TRAP staining solution was then added and the cells incubated at 37° C. until a red colour had developed, after which the reaction was stopped by rinsing with water. The stained cells were air-dried and then photographed using a conventional microscope and the TRAP-positive multinucleated osteoclasts counted by two independent observers.
# The average results (n=6) for each concentration of test compound were averaged between the two observers and then expressed as a fold change versus the average control value. The data were then plotted graphically using software from Grafit (Erithacus Software).
# [2] = Rodent Pharmacokinetics Studies; assay type: in vivo, rat; details: male Han Wistar rats; for i.v. AUC: 1 mg/kg intravenous, 5% DMSO/10% solutol in saline; for bioavailability: rat, plasma, 5 mg/kg, oral in 0.5% CMC/0.1% Tween-80, i.v. in 5% DMSO/10% solutol in saline, read-out: Bioavail, F (%)
# Protocol: Absorption and metabolic stability were studied using an in vivo pharmacokinetics assay.
# […] […] For compound HMC-C-01-A the oral administration was formulated in 2% dimethylacetamide/20% hydroxypropyl-β-cyclodextrin in water. Animals were given free access to food throughout the study except for fasting overnight and until 2 hours post dose on the day of dosing.
# Blood samples were taken from the retro-orbital plexus at the following time points and placed in microtubes containing 20% K2EDTA solution: […]
# Blood samples were centrifuged to obtain plasma, which was transferred to a separate container and frozen at −20° C.
# For analysis, samples were thawed at room temperature and prepared by protein precipitation with acetonitrile spiked with internal standard (500 ng/mL glipizide) in the ratio 1:4 with plasma. The samples were then vortexed for 5 minutes and centrifuged for 10 minutes at 20,600×g at 4° C. 100 μL of the supernatant was collected for analysis.
# The pharmacokinetic parameters for the test compounds were calculated by Phoenix WinNonlin version 6.3 (Pharsight Corp, CA) using standard non-compartmental methods. Peak plasma concentrations (Cmax) and time of the peak plasma concentration (Tmax) were the observed values. The area under the plasma concentration-time curve (AUC) was determined by use of the linear trapezoidal rule up to the last measurable concentration (AUClast) and thereafter by extrapolation of the terminal elimination phase to infinity (AUCinf). The terminal elimination rate constant (kel) was determined by regression analysis of the linear terminal portion of the log plasma concentration-time curve. The elimination phase half-life (t1/2) was calculated as 0.693/kel.
# J774 macrophages = experiment: Resazurin Macrophage J774 Viability Assay; assay type: cell-based; details: Mus musculus, J774, 72 h; footnote (1): 10 point range 30 μM to 1.5 nM, n = 3 per concentration, Grafit; 72 hour incubation
# Protocol: Potency was assessed using a viability assay based on the survival of the J774 macrophage cell line. Macrophages are closely related to osteoclasts and have been used previously as a model system for osteoclast survival (see, e.g., Luckman et al., 1998, “Heterocycle-containing bisphosphonates cause apoptosis and inhibit bone resorption by preventing protein prenylation: evidence from structure-activity relationships in J774 macrophages,” J. Bone Miner. Res., Vol. 13, pp. 1668-1678). The model is indicative both of effects on bone protection in diseases such as osteoporosis, osteoarthritis and rheumatoid arthritis, and of effects on inflammation since, like osteoclasts, J774 macrophages are dependent for survival on continued NFκB activation.
# In vitro potency of test compounds was determined by incubation with J774 macrophages and subsequent determination of cell viability using resazurin.
# Resazurin is a redox dye commonly used as an indicator of viability in cultured cells (see, e.g., Anoopkumar-Dukie, 2005, “Resazurin assay of radiation response in cultured cells”, British Journal of Radiology, Vol. 78, pp. 945-947). It is non-toxic to cells and stable in culture medium, allowing continuous measurement of cell proliferation in vitro as either a kinetic or endpoint assay. The assay is based on the ability of viable, metabolically-active cells to reduce resazurin (which is blue and non-fluorescent) to resorufin and dihydroresorufin (which are red and fluorescent) using electrons from reducing species, such as nicotinamide […] and flavin adenine dinucleotide (FADH). This transformation, from oxidised form to reduced form, can be measured either colorimetrically or fluorometrically. Insults that impair cell viability and proliferation also affects the capacity of cells to reduce resazurin, and the rate of dye reduction is directly proportional to the number of viable cells present.
# For fluorescence measurements, 530-560 nm excitation and 590 nm emission wavelengths are typically used. For colorimetric measurements, absorbance at 570 nm (reduced form) and 600 nm (oxidised form) is typically measured. A simple calculation is performed to determine the relative quantities of the two species: a high ratio of resorufin (the reduced form) to resazurin (the oxidised form) is an indicator that cells are proliferating and viable. A low ratio indicates cells that are quiescent or non-viable.
# J774 cells were plated at 10^4 cells per well in 100 μL αMEM (α Modified Eagle Medium) in 96-well plates and allowed to adhere overnight. The following day, test compounds were prepared as 100 mM solutions in DMSO. These stock solutions were diluted in DMSO and then diluted 1000× in culture medium (αMEM) before being added directly to the wells so as to give the desired final compound concentration. After a 72 hour incubation at 37° C./5% CO2, resazurin (Alamar Blue, Biosource International) was added to each well (1:10 v/v, 10 μL). The plate was then incubated at 37° C. for 3 hours and fluorescence was measured at 590 nm, with a 25 nm bandwidth.
# The average results for each test compound were expressed as a percent (%) of the average control value reflecting cell viability. The average values across the concentrations tested were then plotted and an IC50 was calculated by fitting the data to a 4-parameter IC50 equation using either Graph Pad Prism software for Windows (Graph Pad Software, San Diego Calif. USA) or Grafit version 5 (Erithacus Software). Each experiment was repeated twice and the data are presented as the mean IC50 from both experiments.
# [3] = 5 mg/kg orally, 0.5% CMC/0.1% Tween-80
i.v. AUC [2],"p.o. AUC [2, 3]",bioavailability [2],"p.o. AUC (ng/mL/min) [2, 3]",SMILES,% reduction at 1 μM [1],IC50 (J774 macrophages)
,,,,"NCCCC(O)(P(=O)(O)O)P(=O)(O)O [Alendronate, alendronate]",12%,
2142 ng/mL/min,5927 ng/mL/min,55%,,"O=S(=O)(N[C@H]1CC[C@H](O)CC1)c1ccc(-c2ncc(Cl)cc2Cl)cc1 [ABD836, reference compound]",,1450 nM
963 ng/mL/min,,50%,4766 ^(4) ng/mL/min,"Cc1cc(S(=O)(=O)NC2CCC(C)(O)CC2)ccc1-c1ccc(F)cc1F (single isomer, unassigned) [REF001, reference compound]",,50 nM
